From patent US20240261292A1, “COMBINATION THERAPIES” (Janssen Pharmaceutica NV, priority 2021, published 2024)
pIC50: −log10 of the molar value. Where a name gives a salt, the structure may show the parent alone. Read-outs that look alike come from different tables or passages of the source.

Key:
OCI-AML3 cells = assay: Proliferation assay (spheroid), OCI-AML3; format: cell-based, human; conditions: Homo sapiens, OCI-AML-3, […], 8 days
Procedure: The anti-proliferative effect of menin/MLL protein/protein interaction inhibitor test compounds was assessed inhuman leukemia cell lines. The cell line MOLM-14 harbors a MLL translocation and expresses the MLL fusion protein MLL-AF9, respectively, as well as the wildtype protein from the second allele. OCI-AML3 cells that carry the NPM1c gene mutation were also tested. […] KO-52 was used as a control cell line containing two MLL (KMT2A) wildtype alleles in order to exclude compounds that display general cytotoxic effects.
KO-52 and OCI-AML3 cell lines were propagated in alpha-MEM (Sigma Aldrich) supplemented with 20% heat-inactivated fetal bovine serum (HyClone), 2 mM L-glutamine (Sigma Aldrich) and 50 μg/ml gentamycin (Gibco).
In order to assess the anti-proliferative effects, 200 MOLM-14 cells, 200 OCI-AML3 cells or 300 KO-52 cells were seeded in 200 μl media per well in 96-well round bottom, ultra-low attachment plates (Costar, catalogue number 7007). Cell seeding numbers were chosen based on growth curves to ensure linear growth throughout the experiment. Test compounds were added at different concentrations and the DMSO content was normalized to 0.3%. Cells were incubated for 8 days at 37° C. and 5% CO2. Spheroid like growth was measured in real-time by live-cell imaging (IncuCyteZOOM, Essenbio, 4× objective) acquiring images at day 8. Confluence (%) as a measure of spheroid size was determined using an integrated analysis tool.
In order to determine the effect of the test compounds over time, the confluence in each well as a measure of spheroid size, was calculated. Confluence of the highest dose of a reference compound was used as baseline for the LC (Low control) and the confluence of DMSO treated cells was used as 0% cytotoxicity (High Control, HC).
HC=High Control: Mean confluence (%) (DMSO treated cells);
Dose-response equation was used for the plot of % Effect vs Log10 compound concentration with a variable slope and fixing the maximum to 100% and the minimum to 0%. 2b) MEIS1 mRNA Expression Assay

[1] = Metabolic stability in mouse liver microsomes; format: in vitro ADME; conditions: pH 7.4, 0.5 mg/mL microsomes protein, read-out: Mouse LM Clint
Procedure: 4) Metabolic Stability in Human/Mouse Liver Microsomes
The objective of this study is to measure in vitro metabolic stability of test compound(s) in human and mouse liver microsomes and provide quantitative information on the rate of metabolic turnover (i.e., determination of the apparent intrinsic clearance of test).
Test items were prepared at a stock concentration of 10 mM in DMSO. For determination of metabolic turnover, a final working solution was prepared by adding 2 μL of 10 mM DMSO stock solution for test compound or positive control compounds to 198 μL of acetonitrile (100 μM final concentration).
Incubations were performed as follows: First, liver microsomes were thawed on ice and a master solution containing liver microsomes in 100 mM PBS (phosphate-buffered saline) at pH 7.4 is prepared. Next, the liver microsomes solution was added to the incubation plates and 10 mM NADPH (Nicotinamide-adenine dinucleotide phosphate) was added (MW: 833.4 g/mol; Roche Diagnostics GmbH1, Germany. Dissolved in phosphate buffer (100 mmol/L, pH 7.4)). The mixture was mixed for 10 seconds and pre-warmed in the incubation plate at 37° C. for 10 minutes. The metabolic reaction was initiated with the addition of 5 μL of the 100 μM working solution for test compound or positive control compounds to incubation plate (final test item concentration=1 μM). The reaction final mixture should contain 1 mM NADPH, 0.5 mg/mL microsomes protein and 1 μM test compound or positive control compound in 100 mM PBS at pH 7.4. The percentage of organic solvent in incubation mixture is 1% with DMSO 0.02%.
The reaction was quenched by transferring 50 μL of the incubated mixture at selected time points into the quenching plate containing 200 μL of cold methanol. […]
All calculations were carried out using Microsoft Excel. The slope value, k, was determined by linear regression of the natural logarithm of the remaining percentage of the parent drug vs. incubation time curve.
The in vitro half-life (in vitro t1/2) was determined from the slope value: […]

SMILES	pIC50 (OCI-AML3 cells)	microsomal CLint at 1 μM ([1]; liver microsomes) [µL/min/mg]	microsomal CLint at 1 μM ([1]; mouse liver microsomes) [µL/min/mg]
CCN(C(=O)c1cc(F)ccc1Oc1nncnc1N1CCC2(C1)CN([C@H](CCCNCCOC)C(C)C)C2)C(C)C [Compound 11, (R)-N-ethyl-5-fluoro-N-isopropyl-2-((5-(2-(6-((2-methoxyethyl)amino)-2-methylhexan-3-yl)-2,6-diazaspiro[3.4]octan-6-yl)-1,2,4-triazin-6-yl)oxy)benzamide]	6.68	< 7.5	–
CCN(C(=O)c1cc(F)ccc1Oc1nncnc1N1CCC2(C1)CN([C@H](CCCN(C)CCOC)C(C)C)C2)C(C)C [Compound A3, (R)-N-ethyl-5-fluoro-N-isopropyl-2-((5-(2-(6-((2-methoxyethyl) (methyl)amino)-2-methylhexan-3-yl)-2,6-diazaspiro[3.4]octan-6-yl)-1,2,4-triazin-6-yl)oxy) benzamide oxalate]	6.92	–	< 7.5
